In US20250325552A1, “SUBSTITUTED THIADIAZOLYL DERIVATIVES AS DNA POLYMERASE THETA INHIBITORS” (IDEAYA Biosciences, Inc., priority 2020, published 2025):
pIC50: −log10 of the molar value.

These compounds were tested against Polθ theta (1-899) (hPolQ) (Homo sapiens (Human), UniProt O75417) (assay: Biological Assay 1: Polθ ATPase activity, NADH oxidation-coupled enzymatic assay (10 nM enzyme, 30 min)). Conditions: Polθ (1-899) 10 nM, 100 μM ATP, 300 nM dT50 ssDNA; Examples 1 to 268; read-out: ATPase NADH coupling:Standard Screening:hPolQ IC50.
Chain of Polθ theta (1-899) (hPolQ) (O75417 1-899): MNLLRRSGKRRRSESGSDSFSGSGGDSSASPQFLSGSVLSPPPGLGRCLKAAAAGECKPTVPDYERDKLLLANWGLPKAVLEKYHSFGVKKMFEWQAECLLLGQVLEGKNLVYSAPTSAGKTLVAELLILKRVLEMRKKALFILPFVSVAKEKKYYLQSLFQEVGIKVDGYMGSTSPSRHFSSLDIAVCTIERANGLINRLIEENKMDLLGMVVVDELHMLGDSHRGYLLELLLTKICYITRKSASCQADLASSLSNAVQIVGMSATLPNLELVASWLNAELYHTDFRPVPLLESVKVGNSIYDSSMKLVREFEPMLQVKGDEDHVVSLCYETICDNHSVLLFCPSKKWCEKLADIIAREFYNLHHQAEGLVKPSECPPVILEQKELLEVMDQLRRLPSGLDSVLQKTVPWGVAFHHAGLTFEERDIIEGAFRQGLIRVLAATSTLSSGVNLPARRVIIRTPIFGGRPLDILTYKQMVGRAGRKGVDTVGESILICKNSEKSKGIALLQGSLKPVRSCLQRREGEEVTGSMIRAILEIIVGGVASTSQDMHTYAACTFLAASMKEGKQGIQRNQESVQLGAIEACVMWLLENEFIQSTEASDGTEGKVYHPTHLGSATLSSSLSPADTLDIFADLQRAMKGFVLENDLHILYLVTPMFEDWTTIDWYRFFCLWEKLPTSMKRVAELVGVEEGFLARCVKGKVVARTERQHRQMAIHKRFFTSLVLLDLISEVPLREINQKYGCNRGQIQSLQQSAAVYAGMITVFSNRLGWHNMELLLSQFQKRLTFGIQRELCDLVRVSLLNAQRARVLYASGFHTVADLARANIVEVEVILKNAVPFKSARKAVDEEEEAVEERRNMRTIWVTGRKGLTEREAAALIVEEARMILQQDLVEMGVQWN
Format: biochemical
Outline: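 Polθ (1-899) at 10 nM was preincubated with compound for 15 min at room temperature in 20 mM Tris pH 7.80, 80 mM KCl, 10 mM MgCl2. An equal volume of 100 μM ATP, 300 nM dT50 ssDNA and a PK/LDH–NADH coupling system was then added. A340 was read each minute for 30 min. IC50 came from rate slopes over 10-point series with a four-parameter fit.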
`COc1cnc(C)cc1-c1cc(C)ncc1C(=O)Nc1nnc(OCc2ccc(OC(C)C)cn2)s1` [Example 74, N-(5-((5-isopropoxypyridin-2-yl)methoxy)-1,3,4-thiadiazol-2-yl)-5′-methoxy-2′,6-dimethyl-(4,4′-bipyridine)-3-carboxamide] was tested, and the pIC50 was at least 6.70.
For `COc1cccc(F)c1-c1cc(C)ncc1C(=O)Nc1nnc(OCc2ccc(OC(C)C)cn2)s1` [Example 75, 4-(2-fluoro-6-methoxyphenyl)-N-(5-((5-isopropoxypyridin-2-yl)methoxy)-1,3,4-thiadiazol-2-yl)-6-methylnicotinamide], the pIC50 was at least 6.70.
Work on `COc1cnc(C)cc1-c1cc(C)ncc1C(=O)Nc1nnc(OCc2ccc(C(C)(C)O)cn2)s1` [Example 76, N-(5-((5-(2-hydroxypropan-2-yl)pyridin-2-yl)methoxy)-1,3,4-thiadiazol-2-yl)-5′-methoxy-2′,6-dimethyl-(4,4′-bipyridine)-3-carboxamide] yielded a pIC50 of at least 6.70.
In the case of `COc1c(-c2cc(C)ncc2C(=O)Nc2nnc(OCc3ccc(Cl)cn3)s2)ccnc1Cl` [Example 77, 2′-chloro-N-(5-((5-chloropyridin-2-yl)methoxy)-1,3,4-thiadiazol-2-yl)-3′-methoxy-6-methyl-(4,4′-bipyridine)-3-carboxamide], the pIC50 was at least 6.70.
For `COc1cnc(Cl)cc1-c1cc(C)ncc1C(=O)Nc1nnc(OCC23CC(F)(C2)C3)s1` [Example 78, 2′-chloro-N-(5-((3-fluorobicyclo(1.1.1)pentan-1-yl)methoxy)-1,3,4-thiadiazol-2-yl)-5′-methoxy-6-methyl-(4,4′-bipyridine)-3-carboxamide], the pIC50 was at least 6.70.
`COc1cccc(F)c1-c1cc(C)ncc1C(=O)Nc1nnc(OCc2ccc(C(C)(C)OC)cn2)s1` [Example 80, 4-(2-fluoro-6-methoxyphenyl)-N-(5-((5-(2-methoxypropan-2-yl)pyridin-2-yl)methoxy)-1,3,4-thiadiazol-2-yl)-6-methylnicotinamide] was tested, and the pIC50 was at least 6.70.
Work on `COc1cccc(F)c1-c1cnncc1C(=O)Nc1nnc(OCc2ccc(C(C)(C)O)cn2)s1` [Example 81, 5-(2-fluoro-6-methoxyphenyl)-N-(5-((5-(2-hydroxypropan-2-yl)pyridin-2-yl)methoxy)-1,3,4-thiadiazol-2-yl)pyridazine-4-carboxamide] yielded a pIC50 of at least 6.70.
In the case of `COc1cnc(C)cc1-c1cc(C)ncc1C(=O)Nc1nnc(OCc2ccc(OC(F)F)cn2)s1` [Example 82, N-(5-((5-(difluoromethoxy)pyridin-2-yl)methoxy)-1,3,4-thiadiazol-2-yl)-5′-methoxy-2′,6-dimethyl-(4,4′-bipyridine)-3-carboxamide], the pIC50 was at least 6.70.
In the case of `COc1cnc(C)cc1-c1cc(C)ncc1C(=O)Nc1nnc(OCc2ccc(C(C)(C)C#N)cn2)s1` [Example 83, N-(5-((5-(2-cyanopropan-2-yl)pyridin-2-yl)methoxy)-1,3,4-thiadiazol-2-yl)-5′-methoxy-2′,6-dimethyl-(4,4′-bipyridine)-3-carboxamide], the pIC50 was at least 6.70.
Compound `COc1cnc(Cl)cc1-c1cc(C)ncc1C(=O)Nc1nnc(OCc2ccc(C(C)(C)C#N)cn2)s1` [Example 84, 2′-chloro-N-(5-((5-(2-cyanopropan-2-yl)pyridin-2-yl)methoxy)-1,3,4-thiadiazol-2-yl)-5′-methoxy-6-methyl-(4,4′-bipyridine)-3-carboxamide] has a pIC50 of at least 6.70.
In the case of `COc1c(-c2cc(C)ncc2C(=O)Nc2nnc(OCc3ccc(Cl)cn3)s2)ccnc1C#N` [Example 85, N-(5-((5-chloropyridin-2-yl)methoxy)-1,3,4-thiadiazol-2-yl)-2′-cyano-3′-methoxy-6-methyl-[4,4′-bipyridine]-3-carboxamide], the pIC50 was at least 6.70.
For `COc1cnc(Cl)cc1-c1cc(C)ncc1C(=O)Nc1nnc(OCc2ccc(C3(C)COC3)cn2)s1` [Example 86, 2′-chloro-5′-methoxy-6-methyl-N-(5-((5-(3-methyloxetan-3-yl)pyridin-2-yl)methoxy)-1,3,4-thiadiazol-2-yl)-[4,4′-bipyridine]-3-carboxamide], the pIC50 was at least 6.70.
`COc1cccc(F)c1-c1cc(C)ncc1C(=O)Nc1nnc(OCc2ncc(C(C)(C)O)cc2F)s1` [Example 87, N-(5-((3-fluoro-5-(2-hydroxypropan-2-yl)pyridin-2-yl)methoxy)-1,3,4-thiadiazol-2-yl)-4-(2-fluoro-6-methoxyphenyl)-6-methylpyridine-3-carboxamide] was tested, and the pIC50 was at least 6.70.
In the case of `COc1cccc(F)c1-c1cc(C)ncc1C(=O)Nc1nnc(OCc2ccc(C(C)(C)C#N)cn2)s1` [Example 88, N-(5-((5-(2-cyanopropan-2-yl)pyridin-2-yl)methoxy)-1,3,4-thiadiazol-2-yl)-4-(2-fluoro-6-methoxyphenyl)-6-methylnicotinamide], the pIC50 was at least 6.70.
`Cc1cc(-c2cc(C)ncc2C(=O)Nc2nnc(OCc3ccc(C(C)(C)O)cn3)s2)ccn1` [Example 89, N-(5-((5-(2-hydroxypropan-2-yl)pyridin-2-yl)methoxy)-1,3,4-thiadiazol-2-yl)-2′,6-dimethyl-(4,4′-bipyridine)-3-carboxamide] was tested, and the pIC50 was 6.30 to 6.70.
For `COc1cnc(C)cc1-c1cc(C)ncc1C(=O)Nc1nnc(OCc2ccc(C(=O)O)cn2)s1` [Example 90, 6-(((5-(5′-methoxy-2′,6-dimethyl-(4,4′-bipyridine)-3-amido)-1,3,4-thiadiazol-2-yl)oxy)methyl)pyridine-3-carboxylic acid], the pIC50 was at least 6.70.
With `COc1cccc(COc2nnc(NC(=O)c3cnc(C)cc3-c3c(F)cccc3OC)s2)n1` [Example 91, 4-(2-fluoro-6-methoxyphenyl)-N-(5-((6-methoxypyridin-2-yl)methoxy)-1,3,4-thiadiazol-2-yl)-6-methylpyridine-3-carboxamide] the pIC50 was at least 6.70.
For `COc1cccc(F)c1-c1cc(C)ncc1C(=O)Nc1nnc(OCc2ccc([C@H](C)OC)cn2)s1` [Example 93, 4-(2-fluoro-6-methoxyphenyl)-N-(5-((5-((S)-1-methoxyethyl)pyridin-2-yl)methoxy)-1,3,4-thiadiazol-2-yl)-6-methylnicotinamide], the pIC50 was at least 6.70.
Compound `COc1cccc(F)c1-c1cc(C)ncc1C(=O)Nc1nnc(OCc2ccc([C@@H](C)OC)cn2)s1` [Example 94, 4-(2-fluoro-6-methoxyphenyl)-N-(5-((5-((R)-1-methoxyethyl)pyridin-2-yl)methoxy)-1,3,4-thiadiazol-2-yl)-6-methylnicotinamide] has a pIC50 of at least 6.70.
`COc1cccc(F)c1-c1cc(C)ncc1C(=O)Nc1nnc(OCC23CC(C#N)(C2)C3)s1` [Example 95, N-(5-((3-cyanobicyclo(1.1.1)pentan-1-yl)methoxy)-1,3,4-thiadiazol-2-yl)-4-(2-fluoro-6-methoxyphenyl)-6-methylpyridine-3-carboxamide] was tested, and the pIC50 was at least 6.70.
Work on `COc1ccc(Cl)cc1-c1cc(C)ncc1C(=O)Nc1nnc(OCc2ccc(C(C)(C)O)cn2)s1` [Example 96, 4-(5-chloro-2-methoxyphenyl)-N-(5-((5-(2-hydroxypropan-2-yl)pyridin-2-yl)methoxy)-1,3,4-thiadiazol-2-yl)-6-methylnicotinamide] yielded a pIC50 of at least 6.70.
With `COc1cccc(F)c1-c1cc(C)ncc1C(=O)Nc1nnc(OCc2cnc(CO)cn2)s1` [Example 97, 4-(2-fluoro-6-methoxyphenyl)-N-(5-((5-(hydroxymethyl)pyrazin-2-yl)methoxy)-1,3,4-thiadiazol-2-yl)-6-methylnicotinamide] the pIC50 was at least 6.70.
